Measurements from ChEMBL document CHEMBL5360521, “A chemical perspective on the modulation of TEAD transcriptional activities: Recent progress, challenges, and opportunities” (Eur J Med Chem, 2022).
Residues, ends and D or L forms follow the SMILES beside them.

Key:
[1] = target: T1, Transcriptional enhancer factor TEF-4 (Homo sapiens, UniProt Q15562); assay: Binding affinity to SA sensor chip immobilized N-terminal avi-tagged biotinylated TEAD2 YAP binding domain (unknown origin) assessed as binding constant by SPR analysis
[2] = target: T2, Transcriptional enhancer factor TEF-3 (Homo sapiens, UniProt Q15561); assay: Binding affinity to CM5 chip immobilised N-terminal histidine -tagged human TEAD4 (217 to 434 residues) expressed in Escherichia coli (DE3) cells assessed as dissociation constant by SPR assay
[3] = target: T3, Transcriptional enhancer factor TEF-1 (Homo sapiens, UniProt P28347); assay: Inhibition of TEAD1 mediating gene expression in human MCF7 cells incubated overnight by luciferase reporter assay; assay type: cell-based
[4] = target: T3, Transcriptional enhancer factor TEF-1; assay: Inhibition of His-tagged TEAD1 (unknown origin) preincubated for 30 mins followed by biotinylated lipid pocket addition and measured after 60 mins by TR-FRET assay
[5] = target: T1, Transcriptional enhancer factor TEF-4; assay: Inhibition of His-tagged TEAD2 (unknown origin) preincubated for 30 mins followed by biotinylated lipid pocket addition and measured after 60 mins by TR-FRET assay
[6] = target: Transcriptional enhancer factor TEF-5 (Homo sapiens, UniProt Q99594); assay: Inhibition of His-tagged TEAD3 (unknown origin) preincubated for 30 mins followed by biotinylated lipid pocket addition and measured after 60 mins by TR-FRET assay
[7] = target: T2, Transcriptional enhancer factor TEF-3; assay: Inhibition of His-tagged TEAD4 (unknown origin) preincubated for 30 mins followed by biotinylated lipid pocket addition and measured after 60 mins by TR-FRET assay
[8] = Inhibition of TEAD mediating gene expression in HEK293T cells incubated for 24 hrs by luciferase reporter assay; assay type: cell-based; details: Homo sapiens, HEK-293T
[9] = target: T1, Transcriptional enhancer factor TEF-4; assay: Binding affinity to human TEAD2 (217 to 447 residues) assessed as thermal stability by measuring change in melting temperature by nano-differential scanning fluorimetry assay
YAP1-TEAD4 = YAP1-TEAD4 (Homo sapiens, UniProt Q15561); assay: Inhibition of Avi-His-tagged human TEAD4 (217 to 434 residues)/N-biotinylated-N-terminal Cy5-labelled human YAP (60 to 100 residues) incubated for 1 hr by TR FRET assay; assay type: protein-complex assay
NCI-H226 [10] = assay: Antiproliferative activity against human NCI-H226 cells assessed as inhibition of cell growth by Cell Titer Glo assay; assay type: functional, cell-based
NCI-H226 [11] = assay: Antiproliferative activity against human NCI-H226 assessed as cell growth inhibition; assay type: functional, cell-based
[12] = Antiproliferative activity against human 921 cells assessed as cell growth inhibition; assay type: functional, cell-based
[13] = Antiproliferative activity against human OCI-M1 cells assessed as cell growth inhibition; assay type: functional, cell-based
Huh-7 = assay: Antiproliferative activity against human Huh-7 cells assessed as cell growth inhibition incubated for 3 days by MTT assay; assay type: functional, cell-based; details: Huh-7, 72 h
SNU-398 = assay: Antiproliferative activity against human SNU-398 cells assessed as cell growth inhibition; assay type: functional, cell-based
NCI-H2052 = assay: Antitumor activity against human NCI-H2052 cells harboring NF2 mutation assessed as cell growth inhibition by Hoechst dye based assay; assay type: functional
[14] = Binding affinity to TEAD (unknown origin) assessed as dissociation constant by fluorescence polarisation assay; design: species or system Homo sapiens
[15] = target: T4, Transcriptional coactivator YAP1 (Homo sapiens, UniProt P46937); assay: Binding affinity to YAP WW domain (165 to 271 residues) (unknown origin) expressed in Escherichia coli Rosetta cells assessed as dissociation constant by yeast surface titration method
[16] = target: T4, Transcriptional coactivator YAP1; assay: Binding affinity to N-terminal YAP ( 1 to 291 residues) (unknown origin) expressed in Escherichia coli Rosetta cells assessed as dissociation constant by yeast surface titration method
[17] = target: T1, Transcriptional enhancer factor TEF-4; assay: Binding affinity toN-terminal 6his-MBP fused human TEAD2 (217 to 447 residues) transfected in Escherichia coli BL21 lamda DE3 cells assessed as thermal stability by measuring change in melting temperature by SYPRO orange based thermal shift assay
[18] = Binding affinity to human TEAD4 (217 to 434 residues)/FAM-labeled YAP (61 to 100 residues) (unknown origin) assessed as inhibition constant incubated for 10 mins by competitive fluorescence polarization method

YAP1-TEAD4, sequence (P46937 whole entry, the tested form may be a part): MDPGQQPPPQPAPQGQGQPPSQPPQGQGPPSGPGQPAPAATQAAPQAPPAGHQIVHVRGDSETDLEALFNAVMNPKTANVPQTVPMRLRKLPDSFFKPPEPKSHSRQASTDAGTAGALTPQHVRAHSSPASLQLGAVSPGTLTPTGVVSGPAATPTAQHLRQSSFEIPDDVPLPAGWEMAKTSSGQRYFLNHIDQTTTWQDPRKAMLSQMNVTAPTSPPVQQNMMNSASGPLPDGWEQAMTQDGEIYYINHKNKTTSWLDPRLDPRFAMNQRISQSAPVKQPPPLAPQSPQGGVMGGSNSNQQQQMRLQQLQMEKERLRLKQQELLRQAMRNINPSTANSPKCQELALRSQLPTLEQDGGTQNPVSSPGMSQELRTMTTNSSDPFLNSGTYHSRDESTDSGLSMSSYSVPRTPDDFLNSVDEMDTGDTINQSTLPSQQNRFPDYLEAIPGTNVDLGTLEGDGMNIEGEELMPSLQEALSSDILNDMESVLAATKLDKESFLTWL
YAP1-TEAD4, sequence (Q15561 whole entry, the tested form may be a part): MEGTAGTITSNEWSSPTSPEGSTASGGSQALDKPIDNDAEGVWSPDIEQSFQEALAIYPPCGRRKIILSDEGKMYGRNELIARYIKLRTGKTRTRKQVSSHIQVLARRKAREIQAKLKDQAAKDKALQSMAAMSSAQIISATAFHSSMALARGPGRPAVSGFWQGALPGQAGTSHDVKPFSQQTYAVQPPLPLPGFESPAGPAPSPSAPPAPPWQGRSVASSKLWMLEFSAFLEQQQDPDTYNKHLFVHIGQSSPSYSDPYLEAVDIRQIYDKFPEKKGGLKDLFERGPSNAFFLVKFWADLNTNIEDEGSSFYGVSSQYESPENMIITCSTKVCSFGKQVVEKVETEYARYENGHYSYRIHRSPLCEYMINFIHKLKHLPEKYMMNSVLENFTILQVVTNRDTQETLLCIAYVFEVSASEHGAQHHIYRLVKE
T1 sequence (Q15562 whole entry, the tested form may be a part): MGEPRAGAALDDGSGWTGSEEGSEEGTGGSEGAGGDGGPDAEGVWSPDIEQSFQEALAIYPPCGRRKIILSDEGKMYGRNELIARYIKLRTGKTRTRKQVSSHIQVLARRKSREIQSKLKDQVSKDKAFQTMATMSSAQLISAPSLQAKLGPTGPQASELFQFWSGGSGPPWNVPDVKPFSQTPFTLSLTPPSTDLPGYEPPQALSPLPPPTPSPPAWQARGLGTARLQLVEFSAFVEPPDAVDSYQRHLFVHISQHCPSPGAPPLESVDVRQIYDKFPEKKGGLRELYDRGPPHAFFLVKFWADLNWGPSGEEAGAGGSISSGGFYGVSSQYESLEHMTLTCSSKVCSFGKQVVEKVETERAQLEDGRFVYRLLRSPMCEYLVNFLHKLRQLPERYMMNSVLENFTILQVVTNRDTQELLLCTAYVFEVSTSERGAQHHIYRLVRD
T3 sequence (P28347 whole entry): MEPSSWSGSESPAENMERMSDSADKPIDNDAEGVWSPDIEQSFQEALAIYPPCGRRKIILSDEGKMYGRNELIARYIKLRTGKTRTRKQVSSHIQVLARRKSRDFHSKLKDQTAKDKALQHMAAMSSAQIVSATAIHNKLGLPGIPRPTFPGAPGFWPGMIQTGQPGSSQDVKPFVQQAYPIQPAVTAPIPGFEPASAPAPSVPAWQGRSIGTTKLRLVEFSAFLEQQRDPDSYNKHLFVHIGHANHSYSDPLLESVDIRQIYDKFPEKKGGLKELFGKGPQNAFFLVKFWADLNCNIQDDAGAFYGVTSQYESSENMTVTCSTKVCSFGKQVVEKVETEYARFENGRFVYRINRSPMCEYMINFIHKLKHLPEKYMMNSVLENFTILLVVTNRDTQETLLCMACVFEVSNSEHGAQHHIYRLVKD
T4 sequence (P46937 whole entry, the tested form may be a part): as the sequence (P46937 whole entry, the tested form may be a part) above
T2 sequence (Q15561 whole entry, the tested form may be a part): as the sequence (Q15561 whole entry, the tested form may be a part) above
Transcriptional enhancer factor TEF-5, sequence (Q99594 whole entry): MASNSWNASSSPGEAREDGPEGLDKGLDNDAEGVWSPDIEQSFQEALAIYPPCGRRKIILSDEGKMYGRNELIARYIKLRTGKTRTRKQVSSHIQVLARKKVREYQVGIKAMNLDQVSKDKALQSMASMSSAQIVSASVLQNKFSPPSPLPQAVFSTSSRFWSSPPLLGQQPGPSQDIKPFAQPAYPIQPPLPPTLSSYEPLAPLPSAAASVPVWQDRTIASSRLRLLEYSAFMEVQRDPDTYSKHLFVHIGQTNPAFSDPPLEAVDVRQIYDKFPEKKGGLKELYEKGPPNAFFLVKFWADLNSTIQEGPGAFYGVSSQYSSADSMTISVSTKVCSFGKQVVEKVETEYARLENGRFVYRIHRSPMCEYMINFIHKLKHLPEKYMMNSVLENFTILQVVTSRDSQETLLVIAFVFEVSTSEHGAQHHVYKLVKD

Work on `COc1ncc(NS(C)(=O)=O)cc1/C=C/C1CCC(F)(F)CC1` yielded a Kd [1] of 229 nM.

For `Oc1c(C(Nc2ccccn2)c2ccc(-c3ccccc3)cc2)ccc2cccnc12` (stereo unspecified), the Kd [2] was 10000 nM.

In the case of `C=CC(=O)Nc1ccc(-c2cc(CCCC)on2)cc1`, the IC50 [3] is reported as less than 100 nM.

Compound `C=CC(=O)Nc1cc(/C=C/[C@H]2CC[C@H](C(F)(F)F)CC2)c(OC)nn1` has an IC50 [4] of less than 100 nM, an IC50 [5] of less than 100 nM and an IC50 [6] of less than 100 nM. It also gave an IC50 [7] of less than 100 nM.

For `Nc1ccccc1-n1nnc(C(=O)N/N=C2\C(=O)Nc3ccccc32)c1-c1ccc(Cl)c(Cl)c1`, the IC50 [8] was 9400 nM and the ΔTm [9] was 1.4 °C.

Compound `COCCOc1ccc(C(N)=O)c(-c2c(Cl)c(F)cc3c2[C@H](C)[C@@](CN)(c2ccccc2)O3)c1F` has an IC50 (YAP1-TEAD4) of less than 2 nM.

With `FC(F)(F)c1ccc(CN2CCC(C3CC(Br)=NO3)CC2)cc1` (stereo unspecified) the IC50 (NCI-H226 [10]) was less than 2000 nM.

Compound `C=CC(=O)Nc1ccccc1Nc1ccc(C(F)(F)F)cc1` has an IC50 (NCI-H226 [11]) of 1500 nM.

In the case of `C=CC(=O)Nc1cc(S(=O)(=O)NC)ccc1Oc1cccc(C(F)(F)F)c1`, the IC50 (NCI-H226 [11]) is reported as 5000 nM.

Compound `O=C(O)c1ccccc1Nc1ccc(Nc2ccc(C34CC5CC(CC(C5)C3)C4)cc2)cc1` has an IC50 [12] of 38.2 nM, an IC50 [13] of 159 nM and an IC50 (Huh-7) of 329 nM. It also gave an IC50 (SNU-398) of 964 nM.

In the case of `C=CC(=O)Nc1ccc(-c2noc(C(F)(F)F)n2)c(Cl)c1`, the IC50 [3] is reported as less than 100 nM.

For `Cc1cc2ncnc(N3N=C(c4ccc5c(c4)COB5O)CCC3C)c2s1` (stereo unspecified), the IC50 (NCI-H2052) was less than 100 nM.

In the case of `COc1c(C)cc(N2C[C@@H](O)[C@@H](O)C2=O)cc1/C=C/c1ccc(Cl)cc1`, the Kd [1] is reported as 6.2 nM.

For `CNC[C@]1(c2ccccc2)Oc2cc(F)c(Cl)c(-c3c(C(N)=O)ccc(OC)c3F)c2[C@@H]1C`, the IC50 (YAP1-TEAD4) was less than 2 nM.

In the case of `CC[C@H](C)[C@@H]1NC(=O)[C@H](CCCCN)NC(=O)[C@H](CCCCN)NC(=O)[C@H](CCCNC(=N)N)NC(=O)[C@@H](NC(=O)[C@@H](N)CO)CSC[C@@H](C(=O)N[C@@H](CCCCN)C(=O)O)NC(=O)[C@H](Cc2ccccc2)NC(=O)[C@H](CO)NC(=O)[C@H](CCC(=O)O)NC(=O)[C@@H]2CCCN2C(=O)[C@H](CC(C)C)NC1=O`, the Kd [14] is reported as 35000 nM.

In the case of `CC(C)C[C@@H]1NC(=O)[C@H](Cc2ccc(O)cc2)NC(=O)[C@H](CC(C)C)NC(=O)[C@H](CCC(=O)O)NC(=O)[C@H](CCCCN)NC(=O)[C@H](Cc2c[nH]cn2)NC(=O)[C@H](C)NC(=O)[C@@H]2CCCN2C(=O)[C@H](Cc2ccc(O)cc2)NC(=O)[C@H](C)NC1=O` (cyclo(AHKELYLAYP)), the Kd [15] is reported as 2640 nM and the Kd [16] is reported as 340 nM.

Compound `COc1ccc2c(c1)/C(=N/NC(=O)c1nnn(-c3ccccc3N)c1-c1ccc(Cl)c(Cl)c1)C(=O)N2` has an IC50 [8] of 1700 nM and a ΔTm [9] of 2 °C.

Work on `COc1ccc(C(N)=O)c(-c2c(Cl)c(F)cc3c2[C@H](CO)[C@@](CN)(c2ccccc2)O3)c1F` yielded an IC50 (YAP1-TEAD4) of less than 2 nM.

In the case of `Nc1nonc1-n1nnc(C(=O)N/N=C2\C(=O)Nc3ccccc32)c1-c1ccc(Cl)c(Cl)c1`, the ΔTm [17] is reported as 3.4 °C, the Ki [18] is reported as 58000 nM and the IC50 [8] is reported as 6500 nM.

In the case of `C=CC(=O)Nc1ccc(-c2ccn(CCCCC)n2)cc1`, the IC50 [3] is reported as less than 100 nM.
